Values joined by “and” are separate entries in the source; they are usually repeats but may differ in a detail not shown here. Identical values can stand only once. Peptide text beside a SMILES is read from it.
How the values were obtained:
LimF [1] = assay: FIT-LimF system: one-pot in vitro expression and prenylation of teMPs; assay type: biochemical, Limnothrix sp. CACIAM 69d; details: 16 hours; for Modification Efficiency % (Tyr prenylation): FIT-LimF system, 20 μM LimF
From the text: First, teMP (teLimE2) mimicking the sequence of bcLimE2 was designed and expressed by genetic code reprogramming using customized cell-free translation, and the so-called flexible in vitro translation (FIT) system (Goto, Y, Katoh, T. & Suga, Flexizymes for genetic code reprogramming. Nat. Protoc., 6, 779-790 (2011)). Specifically, the AUG start codon was reprogrammed with N-chloroacetyl-D-phenylalanine (^ClAcD-F), a linear precursor having a chloroacetyl group (ClAc group) at the N-terminal was expressed, and a thioether bond was formed by a spontaneous ring-closing SN2 reaction with a downstream Cys thiol (FIG. 7a). Note that the FIT system had the composition described below.
teLimE2 expressed in vitro was incubated for 16 hours at 25° C. in the presence of 100 μM LimF and analyzed by LC-MS. […] The in vitro translation system conjugated with LimF will be referred to hereinafter as the FIT-LimF system.
38 types of teLimE2 variants in which the His-1 and His+1 positions were substituted with 19 types of proteinogenic amino acid other than Cys were designed and then expressed and modified in the FIT-LimF system. The reaction results were analyzed by LC-MS. In the present experiment, the prenylation process was performed under intentionally poor modification efficiency conditions by using a low LimF concentration (10 μM). This allowed for more accurate investigation of the influence of His−1 and His+1 amino acids.
The following series of experiments examined whether teMPs of various ring sizes were tolerated by LimF. Thirteen teMP variants with different ring sizes (4 to 18 residues) and a preferred local sequence motif (Ser-His-Ala/Cys) were designed.
Next, it was shown that LimF can modify teMPs having a variety of random sequences. Five teMPs composed of random sequences were expressed and modified using the FIT-LimF system (LimF concentration: 10 μM) (FIG. 7e). […]
Target sequence in this assay (as listed by the source): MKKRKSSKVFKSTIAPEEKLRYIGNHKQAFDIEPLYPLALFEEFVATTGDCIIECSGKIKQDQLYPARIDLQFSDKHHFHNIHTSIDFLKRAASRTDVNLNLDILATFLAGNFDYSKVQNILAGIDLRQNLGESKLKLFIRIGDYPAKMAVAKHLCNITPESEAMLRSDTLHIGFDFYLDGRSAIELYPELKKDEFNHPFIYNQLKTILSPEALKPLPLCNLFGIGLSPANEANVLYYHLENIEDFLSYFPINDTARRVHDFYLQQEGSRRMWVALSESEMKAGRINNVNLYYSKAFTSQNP

AcyF = details: Trp C5 N-prenylation; cited from earlier work
FtmPT2 = target: T1, FtmPT2 (Aspergillus fumigatus, UniProt Q4WAX1); details: Aromatic C5 N-prenylation; cited from earlier work
T1 sequence (Q4WAX1 1-427): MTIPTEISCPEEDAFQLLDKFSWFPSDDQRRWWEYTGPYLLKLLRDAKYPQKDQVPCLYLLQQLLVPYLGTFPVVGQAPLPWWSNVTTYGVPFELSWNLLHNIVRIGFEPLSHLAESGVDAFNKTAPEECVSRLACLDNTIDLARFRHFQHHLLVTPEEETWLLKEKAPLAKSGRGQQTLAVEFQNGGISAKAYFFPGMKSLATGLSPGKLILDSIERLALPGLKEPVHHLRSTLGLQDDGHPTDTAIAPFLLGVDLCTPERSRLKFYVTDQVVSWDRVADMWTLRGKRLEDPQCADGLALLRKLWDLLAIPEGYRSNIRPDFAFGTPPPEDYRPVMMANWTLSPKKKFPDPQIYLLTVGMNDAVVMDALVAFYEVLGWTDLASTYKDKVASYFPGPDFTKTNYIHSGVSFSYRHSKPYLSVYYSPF

Vib-PT = details: Aromatic C5 O-prenylation; cited from earlier work
LimF [2] = assay: LimF prenylation of His monomers and His-containing dipeptides; assay type: biochemical, Limnothrix sp. CACIAM 69d; details: prenyl group donor GPP; 100 μM LimF, 20 hours
Method: The optimization conditions were as follows: 1 mM GPP, 40 mM MgCl2, 1 mM dithiothreitol (DTT), pH 7.2, and reaction temperature 25° C. The reaction conditions described above were used below except where otherwise stated.
• A reaction was performed for 20 hours with 100 μM LimF.
Furthermore, when a prenylation reaction facilitated by 20 μM LimF was applied not only to Ac-AH-NH2, but also to various His-containing dipeptides, it became clear that a His prenylation reaction facilitated by LimF progressed for various His-containing dipeptides (FIG. 6).

LimF [3] = assay: Initial evaluation of LimF with estimated substrates bcLimE1-3 (LC-MS); assay type: biochemical, Limnothrix sp. CACIAM 69d; details: for geranylation by LimF (LC-MS): 20 μM LimF, 20 μM peptide, 2 mM geranyl pyrophosphate, 20 mM MgCl2, pH 7.5, 37° C., 12 hours
Method: In order to examine the enzymatic activity of LimF, LimF was heterologously-expressed in Escherichia coli using the method described above and incubated with chemically synthesized bcLimE1, bcLimE2 or bcLimE3 in the presence of MgCl2 and a prenyl group donor (geranyl pyrophosphate (GPP)). The reaction conditions were as described below.
First, the same experiment as described above was performed using farnesyl pyrophosphate instead of geranyl pyrophosphate as a prenyl group donor. As a result, a trace amount of farnesylated bcLimE2 was generated, although at a lower efficiency than when GPP was used.
The initial evaluation of LimF using estimated substrates (bcLimE1, bcLimE2, and bcLimE3) was performed as follows. An enzymatic reaction was performed for 12 hours at 37° C. under the conditions of LimF (20 μM), peptide substrate (20 μM), prenyl group donor (geranyl pyrophosphate or farnesyl pyrophosphate) (2 mM), HEPES (50 mM, pH 7.5), MgCl2 (20 mM), and DTT (1 mM). After reacting the substrates bcLimE1, bcLimE2, and bcLimE3 for 12 hours at 37° C., respectively, nine times the amount of 1% TFA was added and centrifuged at 4° C. (15300×g, 10 minutes), and a supernatant was recovered. 10 μL of the obtained supernatant was subjected to LC-MS analysis.

LynF = details: Tyr C5 O-prenylation; cited from earlier work
PagF = details: Tyr C5 O-prenylation; cited from earlier work
LimF [4] = assay: Steady-state kinetics of prenylation facilitated by LimF (wild type); assay type: biochemical, Limnothrix sp. CACIAM 69d; details: His-prenylation (C10), 1 mM GPP, 40 mM MgCl2, pH 7.2, 25° C.
Method: Under optimal conditions, the steady-state kinetic parameters of the prenylation reaction of bcLimE2 facilitated by LimF were measured by the methods described below.
The concentration dependence of GPP and MgCl2 in bcLimE2 prenylation reactions facilitated by LimF was measured in reaction systems containing 1 μM LimF, 1 mM or a suitably modified concentration of GPP, 50 mM HEPES pH 7.2, 0.4 mM substrate, 1 mM DTT, and 40 mM or a suitably modified concentration of MgCl2. A reaction solution containing components other than GPP was prepared and preheated to 25° C., and the reaction was then started by adding GPP. After incubating at 25° C., the reaction was stopped at each point and analyzed by LC-MS. Next, the initial rate was calculated as the slope of increase in the amount of prenylation product produced in the linear region. Three separate reactions were carried out under each condition and the mean and standard deviation of the results were used for the analysis.
For GPP concentration dependence and peptide substrate concentration dependence, the kinetic parameters were estimated by fitting the initial rate and GPP substrate concentration or peptide substrate concentration to the Michaelis-Menten model in Graphpad Prism 8.4.2 (GraphPad Prism Software Inc., San Diego, California) software.
Kinetic parameters of the His-prenylation reaction facilitated by LimF were determined based on reactions under optimal conditions using substrates of different concentrations. For the Tyr-prenylation described below, the kinetic parameters were measured under the same conditions except that LimF was set to 5 μM and the reaction temperature was set to 16° C. In order to estimate the kinetic parameters, the initial rate and substrate concentration were fitted to the Michaelis-Menten model in Graphpad Prism 8.4.2 software.
In order to further evaluate the two different prenylation modes by LimF, two teMPs (teR6-H5A/Y7H and teR6-H5A) that undergo efficient His-prenylation and Tyr-prenylation, respectively, were designed and chemically synthesized. Kinetic analysis was carried out according to the above method using these peptides.

GLP1R = target: T2, GLP1R (Homo sapiens, UniProt P43220); assay: cAMP production activation test (cAMP Hunter eXpress GLP1R CHO-K1 GPCR assay kit); assay type: cell-based; details: GLP1R CHO-K1 cells
T2 construct: host or cells: CHO-K1
Method: The concentration range of the used peptides was from 0.33 μM to 20 nM.

T2 sequence (P43220 24-463): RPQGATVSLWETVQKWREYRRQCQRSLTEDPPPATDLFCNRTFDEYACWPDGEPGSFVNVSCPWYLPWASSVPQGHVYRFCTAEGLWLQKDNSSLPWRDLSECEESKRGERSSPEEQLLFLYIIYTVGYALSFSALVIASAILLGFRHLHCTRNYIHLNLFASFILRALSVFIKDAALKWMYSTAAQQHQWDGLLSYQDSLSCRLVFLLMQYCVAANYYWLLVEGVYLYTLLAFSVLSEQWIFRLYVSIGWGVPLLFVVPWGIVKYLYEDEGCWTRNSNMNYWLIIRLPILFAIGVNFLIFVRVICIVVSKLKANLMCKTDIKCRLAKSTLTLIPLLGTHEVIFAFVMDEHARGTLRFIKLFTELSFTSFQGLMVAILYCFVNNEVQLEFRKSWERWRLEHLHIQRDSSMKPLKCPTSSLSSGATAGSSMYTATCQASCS

DHis
prenylation by LimF in FIT-LimF system (LimF [1]; 100 μM LimF, 25° C., LC-MS): favorable substrates

cyclo[TSQIWGSPVP] (head-to-tail cyclized)
Kcat (AcyF): 9.50 min⁻¹
Km (AcyF): 3.32 mM

COc1ccc2c3c([nH]c2c1)[C@H](C=C(C)C)N1C(=O)[C@@H]2CCCN2C(=O)[C@]1(O)[C@H]3O [12,13-dihydroxyfumitremorgin C]
Kcat (FtmPT2): 1.80 min⁻¹
Km (FtmPT2): 96 µM

OCc1ccc(O)cc1 [4-hydroxy-benzenemethanol]
Kcat (Vib-PT): 0.047 min⁻¹
Km (Vib-PT): 2.05 mM

tecyclo [y I T N I A Y D P C] (ITNIAYDPC; not fully specified; cyclized with D-Tyr)
Modification Efficiency % (Tyr prenylation) (LimF [1]): 1%

N[C@@H](Cc1c[nH]cn1)C(=O)O [Free His, H-His-OH]
Modification Efficiency % (LimF [2]): 34.9 ± 0.7%

CCC(C)C1NC(=O)C(CC(N)=O)NC(=O)C(C(C)O)NC(=O)C(C(C)CC)NC(=O)C2CCCN2C(=O)C(CC(=O)O)NC(=O)C(Cc2ccc(O)cc2)NC(=O)C(Cc2ccccc2)NC1=O (centres unmarked) [bcLimE3] (cyclo(DPITNIFY); configuration not given here)
geranylation by LimF (LC-MS) (LimF [3]): not subjected to geranylation

cyclo[APMPPYP] (head-to-tail cyclized)
Kcat (LynF): 0.22 min⁻¹
Km (LynF): 4.2 mM

O=C(N[C@@H](Cc1cnc[nH]1)C(=O)O)OCC1c2ccccc2-c2ccccc21 [Fmoc-His, Fmoc-His-OH]
Modification Efficiency % (LimF [2]): 15.2 ± 0.8%

tecyclo [y I T N I T Y D P C] (ITNITYDPC; not fully specified; cyclized with D-Tyr)
Modification Efficiency % (Tyr prenylation) (LimF [1]): 21%

cyclo[INPYLYP] (head-to-tail cyclized)
Kcat (PagF): 7.4 min⁻¹
Km (PagF): 220 nM

CCC(C)C1NC(=O)C(CCC(=O)O)NC(=O)C(CCC(=O)O)NC(=O)C(Cc2c[nH]cn2)NC(=O)C2CCCN2C(=O)C(Cc2ccc(O)cc2)NC(=O)C(CCCNC(=N)N)NC(=O)C2CCCN2C1=O (centres unmarked) [bcLimE2] (cyclo(EEIPRYPH); configuration not given here)
geranylation by LimF (LC-MS) (LimF [3]): quantitatively converted
farnesylation by LimF (LimF [3]; farnesyl pyrophosphate instead of GPP as prenyl group donor, otherwise as geranylation test): trace amount
Kcat (LimF [4]): 13.8 ± 0.6 min⁻¹
Km (LimF [4]): 313 µM and 310 µM
Kcat (LimF [4]; listed as cyclo[RYPHEEIP]): 13.80 min⁻¹

Ac-AH-NH2 [Ac—AH—NH2]
Modification Efficiency % (LimF [2]): >99%

FAEGTFTSDVSSYLEGGAAKEFIAWLVHGR [GLP-1_H7F/K34H]
cAMP production activation ability (GLP1R): activity comparable to that of natural GLP-1

Source: patent US20250320471A1, “Method for Producing Compounds, Method for Producing Compound Library, Compound Library, and Screening Method” (The University of Tokyo, priority 2021, published 2025)
